Source: ChEMBL document CHEMBL3885881, “DrugMatrix”

Species: Rattus norvegicus
Assay: DrugMatrix - Regimen: Daily Repeat
Type: toxicity, organism-based, Sprague-Dawley
Design: regimen Daily Repeat, gender Male, age 6-8 weeks
Details: in vivo, po, route oral GAVAGE, vehicle .5 % CMC; for BASOPHIL / EOSINOPHIL / ERYTHROCYTE COUNT / HEMATOCRIT / HEMOGLOBIN / LEUKOCYTE COUNT / LYMPHOCYTE / MEAN CORPUSCULAR HEMOGLOBIN / MEAN CORPUSCULAR HEMOGLOBIN CONCENTRATION / MEAN CORPUSCULAR VOLUME / MONOCYTE / NEUTROPHIL / PLATELET COUNT: tissue Blood; for ALANINE AMINOTRANSFERASE / ALBUMIN / ALKALINE PHOSPHATASE / ASPARTATE AMINOTRANSFERASE / BLOOD UREA NITROGEN / CHLORIDE / CHOLESTEROL / CREATINE PHOSPHOKINASE / CREATININE / GLUCOSE / PHOSPHORUS / POTASSIUM / SODIUM / TOTAL BILIRUBIN / TOTAL PROTEIN: tissue Plasma
[1] = 0 mg/kg, 72 h, dose level Control, time 3 day
[2] = 0 mg/kg, 120 h, dose level Control, time 5 day
[3] = 45 mg/kg, 72 h, dose level Low, time 3 day
[4] = 45 mg/kg, 120 h, dose level Low, time 5 day

**Q.** For `Nc1ccc(C(=O)O)c(O)c1` [AMINOSALICYLIC ACID], which BASOPHIL [1] is on record?
**A.** 0%

**Q.** What about the EOSINOPHIL [1] of the same compound?
**A.** 0%

**Q.** What about the “ERYTHROCYTE COUNT” value [1] of the same compound?
**A.** 6.34 x10E6/uL

**Q.** And the HEMATOCRIT [1]?
**A.** 37.62%

**Q.** And the HEMOGLOBIN [1]?
**A.** 14.82 G/DL

**Q.** What about the “LEUKOCYTE COUNT” value [1] of the same compound?
**A.** 11.18 x10E3/uL

**Q.** And the LYMPHOCYTE [1]?
**A.** 87.5%

**Q.** And the “MEAN CORPUSCULAR HEMOGLOBIN” value [1]?
**A.** 23.48 pg

**Q.** And the “MEAN CORPUSCULAR HEMOGLOBIN CONCENTRATION” value [1]?
**A.** 39.5 G/DL

**Q.** What about the “MEAN CORPUSCULAR VOLUME” value [1] of the same compound?
**A.** 59.45 fL

**Q.** And the MONOCYTE [1]?
**A.** 1.67%

**Q.** And the NEUTROPHIL [1]?
**A.** 10.83%

**Q.** What about the “PLATELET COUNT” value [1] of the same compound?
**A.** 1074.83 x10E3/uL

**Q.** And the “ALANINE AMINOTRANSFERASE” value [1]?
**A.** 36.5 u/L

**Q.** What about the ALBUMIN [1] of the same compound?
**A.** 3.9 G/DL

**Q.** And the “ALKALINE PHOSPHATASE” value [1]?
**A.** 370.17 u/L

**Q.** What about the “ASPARTATE AMINOTRANSFERASE” value [1] of the same compound?
**A.** 63.17 u/L

**Q.** What about the “BLOOD UREA NITROGEN” value [1] of the same compound?
**A.** 16.83 mg/dL

**Q.** What about the CHLORIDE [1] of the same compound?
**A.** 99.33 MEQ/L

**Q.** And the CHOLESTEROL [1]?
**A.** 64.33 mg/dL

**Q.** And the “CREATINE PHOSPHOKINASE” value [1]?
**A.** 127 u/L

**Q.** And the CREATININE [1]?
**A.** 0.55 mg/dL

**Q.** And the GLUCOSE [1]?
**A.** 173.5 mg/dL

**Q.** What about the PHOSPHORUS [1] of the same compound?
**A.** 10.08 mg/dL

**Q.** And the POTASSIUM [1]?
**A.** 6.23 MEQ/L

**Q.** What about the SODIUM [1] of the same compound?
**A.** 143.5 MEQ/L

**Q.** And the “TOTAL BILIRUBIN” value [1]?
**A.** 0.52 mg/dL

**Q.** What about the “TOTAL PROTEIN” value [1] of the same compound?
**A.** 6.35 G/DL

**Q.** What about the BASOPHIL [2] of the same compound?
**A.** 0%

**Q.** And the EOSINOPHIL [2]?
**A.** 0.17%

**Q.** And the “ERYTHROCYTE COUNT” value [2]?
**A.** 6.12 x10E6/uL

**Q.** And the HEMATOCRIT [2]?
**A.** 37.08%

**Q.** What about the HEMOGLOBIN [2] of the same compound?
**A.** 14.82 G/DL

**Q.** What about the “LEUKOCYTE COUNT” value [2] of the same compound?
**A.** 11.87 x10E3/uL

**Q.** What about the LYMPHOCYTE [2] of the same compound?
**A.** 83.33%

**Q.** And the “MEAN CORPUSCULAR HEMOGLOBIN” value [2]?
**A.** 24.25 pg

**Q.** What about the “MEAN CORPUSCULAR HEMOGLOBIN CONCENTRATION” value [2] of the same compound?
**A.** 39.97 G/DL

**Q.** What about the “MEAN CORPUSCULAR VOLUME” value [2] of the same compound?
**A.** 60.65 fL

**Q.** What about the MONOCYTE [2] of the same compound?
**A.** 1.5%

**Q.** What about the NEUTROPHIL [2] of the same compound?
**A.** 15%

**Q.** And the “PLATELET COUNT” value [2]?
**A.** 1042.83 x10E3/uL

**Q.** What about the “ALANINE AMINOTRANSFERASE” value [2] of the same compound?
**A.** 46 u/L

**Q.** And the ALBUMIN [2]?
**A.** 3.82 G/DL

**Q.** And the “ALKALINE PHOSPHATASE” value [2]?
**A.** 369.5 u/L

**Q.** What about the “ASPARTATE AMINOTRANSFERASE” value [2] of the same compound?
**A.** 65 u/L

**Q.** And the “BLOOD UREA NITROGEN” value [2]?
**A.** 16.33 mg/dL

**Q.** And the CHLORIDE [2]?
**A.** 100.67 MEQ/L

**Q.** And the CHOLESTEROL [2]?
**A.** 57.17 mg/dL

**Q.** What about the “CREATINE PHOSPHOKINASE” value [2] of the same compound?
**A.** 130 u/L

**Q.** And the CREATININE [2]?
**A.** 0.53 mg/dL

**Q.** And the GLUCOSE [2]?
**A.** 163.33 mg/dL

**Q.** And the PHOSPHORUS [2]?
**A.** 9.53 mg/dL

**Q.** And the POTASSIUM [2]?
**A.** 6.27 MEQ/L

**Q.** And the SODIUM [2]?
**A.** 144.83 MEQ/L

**Q.** And the “TOTAL BILIRUBIN” value [2]?
**A.** 0.55 mg/dL

**Q.** And the “TOTAL PROTEIN” value [2]?
**A.** 6.32 G/DL

**Q.** And the BASOPHIL [3]?
**A.** 0%

**Q.** And the EOSINOPHIL [3]?
**A.** 0%

**Q.** And the “ERYTHROCYTE COUNT” value [3]?
**A.** 6.2 x10E6/uL

**Q.** And the HEMATOCRIT [3]?
**A.** 36.9%

**Q.** What about the HEMOGLOBIN [3] of the same compound?
**A.** 14.43 G/DL

**Q.** And the “LEUKOCYTE COUNT” value [3]?
**A.** 13.37 x10E3/uL

**Q.** And the LYMPHOCYTE [3]?
**A.** 88%

**Q.** And the “MEAN CORPUSCULAR HEMOGLOBIN” value [3]?
**A.** 23.3 pg

**Q.** What about the “MEAN CORPUSCULAR HEMOGLOBIN CONCENTRATION” value [3] of the same compound?
**A.** 39.13 G/DL

**Q.** What about the “MEAN CORPUSCULAR VOLUME” value [3] of the same compound?
**A.** 59.6 fL

**Q.** What about the MONOCYTE [3] of the same compound?
**A.** 0.33%

**Q.** And the NEUTROPHIL [3]?
**A.** 11.67%

**Q.** What about the “PLATELET COUNT” value [3] of the same compound?
**A.** 1203.67 x10E3/uL

**Q.** And the “ALANINE AMINOTRANSFERASE” value [3]?
**A.** 39.33 u/L

**Q.** And the ALBUMIN [3]?
**A.** 3.83 G/DL

**Q.** And the “ALKALINE PHOSPHATASE” value [3]?
**A.** 358.33 u/L

**Q.** What about the “ASPARTATE AMINOTRANSFERASE” value [3] of the same compound?
**A.** 67.33 u/L

**Q.** And the “BLOOD UREA NITROGEN” value [3]?
**A.** 15 mg/dL

**Q.** What about the CHLORIDE [3] of the same compound?
**A.** 99.33 MEQ/L

**Q.** What about the CHOLESTEROL [3] of the same compound?
**A.** 71.33 mg/dL

**Q.** What about the “CREATINE PHOSPHOKINASE” value [3] of the same compound?
**A.** 117 u/L

**Q.** What about the CREATININE [3] of the same compound?
**A.** 0.53 mg/dL

**Q.** What about the GLUCOSE [3] of the same compound?
**A.** 180 mg/dL

**Q.** What about the PHOSPHORUS [3] of the same compound?
**A.** 10.37 mg/dL

**Q.** And the POTASSIUM [3]?
**A.** 6.03 MEQ/L

**Q.** What about the SODIUM [3] of the same compound?
**A.** 143 MEQ/L

**Q.** And the “TOTAL BILIRUBIN” value [3]?
**A.** 0.47 mg/dL

**Q.** What about the “TOTAL PROTEIN” value [3] of the same compound?
**A.** 6.27 G/DL

**Q.** What about the BASOPHIL [4] of the same compound?
**A.** 0%

**Q.** And the EOSINOPHIL [4]?
**A.** 0%

**Q.** And the “ERYTHROCYTE COUNT” value [4]?
**A.** 5.82 x10E6/uL

**Q.** And the HEMATOCRIT [4]?
**A.** 35.1%

**Q.** And the HEMOGLOBIN [4]?
**A.** 14.37 G/DL

**Q.** And the “LEUKOCYTE COUNT” value [4]?
**A.** 14.2 x10E3/uL

**Q.** What about the LYMPHOCYTE [4] of the same compound?
**A.** 88%

**Q.** What about the “MEAN CORPUSCULAR HEMOGLOBIN” value [4] of the same compound?
**A.** 24.67 pg

**Q.** And the “MEAN CORPUSCULAR HEMOGLOBIN CONCENTRATION” value [4]?
**A.** 40.97 G/DL

**Q.** What about the “MEAN CORPUSCULAR VOLUME” value [4] of the same compound?
**A.** 60.3 fL

**Q.** And the MONOCYTE [4]?
**A.** 2%

**Q.** What about the NEUTROPHIL [4] of the same compound?
**A.** 10%

**Q.** And the “PLATELET COUNT” value [4]?
**A.** 1018.67 x10E3/uL

**Q.** And the “ALANINE AMINOTRANSFERASE” value [4]?
**A.** 34.33 u/L

**Q.** What about the ALBUMIN [4] of the same compound?
**A.** 3.6 G/DL

**Q.** And the “ALKALINE PHOSPHATASE” value [4]?
**A.** 348.33 u/L

**Q.** What about the “ASPARTATE AMINOTRANSFERASE” value [4] of the same compound?
**A.** 58 u/L

**Q.** What about the “BLOOD UREA NITROGEN” value [4] of the same compound?
**A.** 15 mg/dL

**Q.** What about the CHLORIDE [4] of the same compound?
**A.** 101 MEQ/L

**Q.** And the CHOLESTEROL [4]?
**A.** 62.67 mg/dL

**Q.** What about the “CREATINE PHOSPHOKINASE” value [4] of the same compound?
**A.** 122.67 u/L

**Q.** What about the CREATININE [4] of the same compound?
**A.** 0.47 mg/dL

**Q.** And the GLUCOSE [4]?
**A.** 155.33 mg/dL

**Q.** What about the PHOSPHORUS [4] of the same compound?
**A.** 10 mg/dL

**Q.** And the POTASSIUM [4]?
**A.** 6.3 MEQ/L

**Q.** And the SODIUM [4]?
**A.** 144.67 MEQ/L

**Q.** What about the “TOTAL BILIRUBIN” value [4] of the same compound?
**A.** 0.37 mg/dL

**Q.** And the “TOTAL PROTEIN” value [4]?
**A.** 5.8 G/DL
